Assays:
Type in all cases: cell-based, human
[1] = tested on: myeloid suppressive cells; experiment: Induction of immunosuppressive factor mRNA by PGE2 and EP agonists (FIG. 3)
Source text: FIG. 3. PGE2, EP4 and EP2 agonists mediate enhanced development of MDSCs. […] All data were confirmed in 3-7 independent experiments. Bar graphs present data of a single representative experiment with different donors as mean±s.d.

suppressive cells = experiment: Yield of ex vivo generated cells (FIG. 5); conditions: N=12 donors, mean
Source text: Yield of PGE2-induced myeloid suppressive cells was similar as the yield of iDCs and TNF-a matured DCs (FIG. 5). FIG. 5. PGE2 allows for ex vivo generation of high numbers of suppressive cells. […] Histograms present data of individual experiments (N=12) with different donors as mean±s.d.

[2] = tested on: monocytes isolated from healthy blood donors; experiment: Induction of COX2 and suppressive factors in short-term cultured monocytes (FIG. 1)
Description: FIG. 1. The induction of endogenous COX2 and MDSC-associated suppressive factors in monocytes by PGE2. (A) Expression of COX2 mRNA (A, left) and protein (A, right) levels in monocytes isolated from healthy blood donors is induced by synthetic PGE2. Regulation of COX1 and COX2 expression by synthetic PGE2 was analyzed after 6-10 h. […] All data (panels A-B) were confirmed in at least 3 independent experiments. Bar graphs present data of a single representative experiment with different donors as mean±s.d. P<0.05 marked *; P<0.01 marked **; P<0.001 marked ***.

[3] = tested on: differentiating monocytes; experiment: Six-day GM-CSF and IL-4-supplemented cultures of differentiating monocytes: phenotype, suppressive factors, CD8+ T cell suppression (FIG. 2)
Source text: PGE2 acts on four subtypes of G protein-coupled receptors designated EP1, EP2, EP3, and EP4, among which EP2 and EP4 signaling is coupled to rise in cAMP concentration.
FIG. 2. PGE2 redirects DC differentiation and induces CD14^+CD33^+CD34^+ cells with the phenotype and function similar to monocytic MDSCs. (A) Phenotype of PGE2-induced CD1a^−CD14^+CD80^−CD83^− suppressive cells expressing inhibitory molecules ILT2, ILT3, ILT4, PDL-1, but not PDL-2. PGE2-induced suppressive cells express E-prostanoid receptors (labeled with α-EP1-, α-EP3- sec.Alexa488 and α-EP2-, α-EP4-PE). […] (bottom) Expression of immunosuppressive factors IL10, IDO1, IL4Rα and COX2 in PGE2-induced suppressive cells. (C) Immunosuppressive effects of PGE2-induced suppressive cells on allogeneic naïve CFSE-labeled CD8^+ T cells primed by CD3/CD28 and stained for granzyme B. Left panel: Percentages indicate the fraction of proliferating granzyme B^+ (marker of CTL status) CD8^+ cells. Right panel: Percentage of proliferating CD8^+ T cells in the presence of PGE2-induced suppressive cells (PGE2-d0) and PGE2-conditioned DCs (PGE2-d6). All data (panels A-C) were confirmed in at least 3 independent experiments. Bar graphs present data of a single representative experiment with different donors as mean±s.d. P<0.05 marked *; P<0.01 marked **; P<0.001 marked ***.

[4] = tested on: PGE2-induced myeloid suppressive cells; experiment: Dose-dependent induction of immunosuppressive factors with or without IL-4 (FIG. 4); conditions: presence or absence of IL-4
Source text: FIG. 4 Minimal requirement for high doses of PGE2 in the functional induction of myeloid suppressive cells, regardless of the presence or absence of IL-4. (A) Dose-dependent expression of immunosuppressive factors IL10, IDO1, IL4Rα and COX2 in PGE2-induced suppressive cells, generated in the presence or absence of IL-4. Histograms present data of a single representative experiment with different donors as mean±s.d.

Question: CCCC1([C@H](O)C/C=C/[C@H]2[C@H](O)CC(=O)[C@@H]2CCCCCCC(=O)OC)CCC1 [Butaprost] was tested. Which “induction of immunosuppressive factors arginase, IDO1, NOS2, IL-4Rα, IL10 and COX2 mRNA” value (from here on “induction … IL10 and COX2 mRNA”) [1] did it give?
Answer: Its value is “induced high levels”.

Question: O=C1CC[C@H](/C=C/[C@@H](O)Cc2ccccc2)N1CCCCCCc1nn[nH]n1 [CAY10598] was tested. Which “induction … IL10 and COX2 mRNA” value [1] did it give?
Answer: Its value is “induced high levels”.

Question: CCCCC[C@H](O)/C=C/[C@H]1[C@H](O)CC(=O)[C@@H]1C/C=C\CCCC(=O)O [PGE2, (5Z,11 alpha,13E,15S)-11,15-dihydroxy-9-oxoprosta-5,13-dien-1-oic acid] was tested. Which yield of cells (suppressive cells) did it give?
Answer: Its yield of cells is 48.6%.

Question: What about the “expression of additional immunosuppressive factors IDO1, NOS2, IL-10, IL4Rα” value [2] of the same compound?
Answer: The value was “induced the expression”.

Question: What about the “expression of endogenous COX2” value ([2]; analyzed after 6-10 h) of the same compound?
Answer: The value was “start expressing endogenous COX2”.

Question: What about the “induction of CD1a+CD14- DCs” value ([3]; added to GM-CSF and IL-4-supplemented cultures of differentiating monocytes) of the same compound?
Answer: The value was “abolished the induction of CD1a^+CD14^− DCs”.

Question: And the CTL-suppressive function ([3]; added to GM-CSF/IL-4-supplemented monocyte cultures)?
Answer: The CTL-suppressive function was “sufficient to induce the CTL-suppressive function”.

Question: And the IL-10 production ([3]; after 6 days of culture)?
Answer: Its IL-10 production is 261 pg/mL.

Question: And the “induction of IL4Rα” value [4]?
Answer: The value was “less pronounced, but also significant”.

Question: And the “production of IL-10, ARG-1, NOS2 and IDO1” value [4]?
Answer: The value was “dose-dependently induced”.

Question: And the “induction … IL10 and COX2 mRNA” value [1]?
Answer: Its value is “Induction of immunosuppressive factors”.

Question: TNF-α was tested. Which yield of cells (suppressive cells) did it give?
Answer: Its yield of cells is 36.9%.

Source: patent US20140255358A1, “GENERATION OF IMMUNOSUPPRESSIVE MYELOID CELLS USING PGE2” (priority 2011, published 2014)
